Experiments:
Aurora kinase A = biological target: T1, Aurora kinase A (Homo sapiens, UniProt O14965); test: Enzyme Inhibition Assay; settings: pH 7.5; 22 °C
T1 sequence (O14965 whole entry): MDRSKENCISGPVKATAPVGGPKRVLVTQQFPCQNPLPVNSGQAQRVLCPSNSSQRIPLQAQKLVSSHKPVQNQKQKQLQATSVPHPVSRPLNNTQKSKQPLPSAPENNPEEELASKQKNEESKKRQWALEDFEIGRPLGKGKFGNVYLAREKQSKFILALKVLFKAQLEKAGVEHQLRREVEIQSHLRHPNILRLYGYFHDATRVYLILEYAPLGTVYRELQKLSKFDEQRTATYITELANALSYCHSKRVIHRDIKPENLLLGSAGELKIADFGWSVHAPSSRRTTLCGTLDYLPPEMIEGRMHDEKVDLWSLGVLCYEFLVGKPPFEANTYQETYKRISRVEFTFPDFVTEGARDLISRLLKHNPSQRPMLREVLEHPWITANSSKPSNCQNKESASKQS
Procedure: (§1) Aurora kinase was assayed in ELISA format using a GST fusion of the N-terminus of Histone H3 as substrate. Plates were coated with substrate, and then blocked with I-block (Tropix) in PBS. After kinase reaction, product was detected by incubation with antiphosphohistone H3 (Ser10) 6G3 mouse monoclonal antibody and sheep-antimouse HRP conjugate, followed by washing and addition of TMB substrate.

Aurora kinase B = Aurora kinase B (Homo sapiens, UniProt Q96GD4); test: Enzyme Inhibition Assay; settings: pH 7.5; 22 °C
Aurora kinase B, sequence (Q96GD4 whole entry): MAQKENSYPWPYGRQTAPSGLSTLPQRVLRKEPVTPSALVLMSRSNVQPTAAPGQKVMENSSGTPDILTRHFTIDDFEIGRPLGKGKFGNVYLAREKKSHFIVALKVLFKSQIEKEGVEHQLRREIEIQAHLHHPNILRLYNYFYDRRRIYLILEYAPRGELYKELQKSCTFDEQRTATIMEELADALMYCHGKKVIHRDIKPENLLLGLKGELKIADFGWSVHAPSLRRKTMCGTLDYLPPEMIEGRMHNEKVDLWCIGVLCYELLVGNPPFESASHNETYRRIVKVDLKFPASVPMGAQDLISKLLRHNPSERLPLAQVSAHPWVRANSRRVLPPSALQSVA
Procedure: as §1

Row | Compound | IC50 (Aurora kinase A) | IC50 (Aurora kinase B)
1 | Cc1[nH]nc2c1CCCc1c-2[nH]c2ccccc12 [5-methyl-3,4,17-triazatetracyclo[8.7.0.0^{2,6}.0^{11,16}]heptadeca-1(10),2,5,11,13,15-hexaene] | 42 nM | 22 nM
2 | Cc1[nH]nc2c1CCCc1c-2[nH]c2cc3c(cc12)NC(=O)C3(C)C [7,7,16-trimethyl-5,11,14,15-tetraazapentacyclo[10.8.0.0^{2,10}.0^{4,8}.0^{13,17}]icosa-1(12),2,4(8),9,13,16-hexaen-6-one] | – | < 2 nM
